Reference: BigSolDB 2.1

CC(C)(Oc1ccc(CCNC(=O)c2ccc(Cl)cc2)cc1)C(=O)O
Conditions	solubility (mole fraction)
in 2-butanone, 283.14 K	0.00191
in 2-butanone, 288.16 K	0.00227
in 2-butanone, 293.17 K	0.00268
in 2-butanone, 298.16 K	0.00312
in 2-butanone, 303.17 K	0.0037
in 2-butanone, 308.14 K	0.00436
in 2-butanone, 313.16 K	0.00505
in 2-butanone, 318.17 K	0.0058
in 2-butanone, 323.16 K	0.00685
in acetonitrile, 283.24 K	0.000113
in acetonitrile, 288.25 K	0.000153
in acetonitrile, 293.24 K	0.000202
in acetonitrile, 298.25 K	0.000274
in acetonitrile, 303.24 K	0.000355
in acetonitrile, 308.22 K	0.00047
in acetonitrile, 313.22 K	0.000625
in acetonitrile, 318.23 K	0.000809
in acetonitrile, 323.24 K	0.00103
in cyclohexanone, 283.14 K	0.00496
in cyclohexanone, 288.19 K	0.00605
in cyclohexanone, 293.24 K	0.00732
in cyclohexanone, 298.14 K	0.00891
in cyclohexanone, 303.27 K	0.0107
in cyclohexanone, 308.13 K	0.0128
in cyclohexanone, 313.19 K	0.0152
in cyclohexanone, 318.22 K	0.0177
in cyclohexanone, 323.22 K	0.0204
in ethanol, 283.14 K	0.00258
in ethanol, 288.24 K	0.00282
in ethanol, 293.3 K	0.00329
in ethanol, 298.28 K	0.00391
in ethanol, 303.24 K	0.00465
in ethanol, 308.22 K	0.00538
in ethanol, 313.13 K	0.00664
in ethanol, 318.18 K	0.00802
in ethanol, 323.24 K	0.00972
in ethyl acetate, 283.17 K	0.000557
in ethyl acetate, 288.17 K	0.000665
in ethyl acetate, 293.16 K	0.000789
in ethyl acetate, 298.14 K	0.000994
in ethyl acetate, 303.17 K	0.0012
in ethyl acetate, 308.14 K	0.00147
in ethyl acetate, 313.17 K	0.00178
in ethyl acetate, 318.16 K	0.0022
in ethyl acetate, 323.19 K	0.00262
in isobutanol, 282.95 K	0.00115
in isobutanol, 288.04 K	0.0015
in isobutanol, 292.93 K	0.00203
in isobutanol, 298.24 K	0.0026
in isobutanol, 303.2 K	0.00316
in isobutanol, 308.22 K	0.00396
in isobutanol, 313.23 K	0.00489
in isobutanol, 318.17 K	0.00603
in isobutanol, 323.2 K	0.00742
in isopentanol, 283.77 K	0.00149
in isopentanol, 288.56 K	0.00196
in isopentanol, 293.5 K	0.00248
in isopentanol, 298.59 K	0.00304
in isopentanol, 303.13 K	0.00365
in isopentanol, 308.21 K	0.00452
in isopentanol, 313.25 K	0.00555
in isopentanol, 318.17 K	0.00672
in isopentanol, 323.25 K	0.00817
in isopropanol, 283.06 K	0.00146
in isopropanol, 288.14 K	0.00195
in isopropanol, 293.19 K	0.00245
in isopropanol, 298.24 K	0.00302
in isopropanol, 303.21 K	0.00371
in isopropanol, 308.16 K	0.00462
in isopropanol, 313.14 K	0.0057
in isopropanol, 318.22 K	0.00705
in isopropanol, 323.2 K	0.00852
in methanol, 283.12 K	0.00233
in methanol, 288.24 K	0.00248
in methanol, 293.26 K	0.00282
in methanol, 298.17 K	0.00333
in methanol, 303.12 K	0.00408
in methanol, 308.14 K	0.00498
in methanol, 313.13 K	0.00614
in methanol, 318.14 K	0.00754
in methanol, 323.12 K	0.00917
in methyl propionate, 283.19 K	0.000428
in methyl propionate, 288.22 K	0.000532
in methyl propionate, 293.23 K	0.000651
in methyl propionate, 298.17 K	0.000823
in methyl propionate, 303.23 K	0.001
in methyl propionate, 308.14 K	0.0012
in methyl propionate, 313.24 K	0.00148
in methyl propionate, 318.16 K	0.00182
in methyl propionate, 323.18 K	0.00221
in n-butanol, 283.16 K	0.00227
in n-butanol, 288.17 K	0.0027
in n-butanol, 293.14 K	0.00332
in n-butanol, 298.17 K	0.00403
in n-butanol, 303.16 K	0.00493
in n-butanol, 308.14 K	0.00599
in n-butanol, 313.17 K	0.00728
in n-butanol, 318.16 K	0.00881
in n-butanol, 323.17 K	0.0104
in n-butyl acetate, 283.17 K	0.000327
in n-butyl acetate, 288.19 K	0.000401
in n-butyl acetate, 293.2 K	0.000494
in n-butyl acetate, 298.14 K	0.000629
in n-butyl acetate, 303.19 K	0.000779
in n-butyl acetate, 308.16 K	0.000948
in n-butyl acetate, 313.14 K	0.00113
in n-butyl acetate, 318.14 K	0.00138
in n-butyl acetate, 323.2 K	0.00167
in n-pentanol, 283.23 K	0.00233
in n-pentanol, 288.23 K	0.00286
in n-pentanol, 293.29 K	0.00344
in n-pentanol, 298.5 K	0.00408
in n-pentanol, 303.24 K	0.00497
in n-pentanol, 308.02 K	0.006
in n-pentanol, 313.08 K	0.0072
in n-pentanol, 317.95 K	0.00857
in n-pentanol, 322.74 K	0.0103
in n-propanol, 283.13 K	0.00239
in n-propanol, 288.18 K	0.00289
in n-propanol, 293.27 K	0.00351
in n-propanol, 298.53 K	0.00421
in n-propanol, 303.33 K	0.00517
in n-propanol, 308.23 K	0.00617
in n-propanol, 313.37 K	0.00729
in n-propanol, 318.35 K	0.00856
in n-propanol, 323.26 K	0.0104
in n-propyl acetate, 283.16 K	0.000457
in n-propyl acetate, 288.24 K	0.000548
in n-propyl acetate, 293.16 K	0.000665
in n-propyl acetate, 298.18 K	0.000819
in n-propyl acetate, 303.16 K	0.001
in n-propyl acetate, 308.16 K	0.00122
in n-propyl acetate, 313.18 K	0.00146
in n-propyl acetate, 318.16 K	0.00177
in n-propyl acetate, 323.16 K	0.00214
in sec-butanol, 283.16 K	0.0023
in sec-butanol, 288.17 K	0.00294
in sec-butanol, 293.14 K	0.00365
in sec-butanol, 298.16 K	0.00444
in sec-butanol, 303.16 K	0.0053
in sec-butanol, 308.14 K	0.00642
in sec-butanol, 313.17 K	0.00766
in sec-butanol, 318.16 K	0.00914
in sec-butanol, 323.16 K	0.0106
